According to patent US11242361B2 (Proteostasis Therapeutics, Inc., priority 2013, dated 2022):
pIC50: −log10 of the molar value. Structures can show the parent of a compound that is named as a salt.

Molecular target: USP14 (Homo sapiens (Human), UniProt P54578)
Assay: USP14 Inhibition Assay
Assay type: biochemical
Conditions: average value from a minimum of two experimental determinations, read-out: IC50 Category
Description: Example 17: USP14 Inhibition Assay
“I” in the Table below designates an IC50 of >5 μM, “II” in the Table below designates and IC50 between 0.5 and 5 μM, and “III” designates an IC50<0.5 μM. The IC50 values in the Table below represent the average value from a minimum of two experimental determinations.

Sequence of USP14 (P54578 whole entry, looked up): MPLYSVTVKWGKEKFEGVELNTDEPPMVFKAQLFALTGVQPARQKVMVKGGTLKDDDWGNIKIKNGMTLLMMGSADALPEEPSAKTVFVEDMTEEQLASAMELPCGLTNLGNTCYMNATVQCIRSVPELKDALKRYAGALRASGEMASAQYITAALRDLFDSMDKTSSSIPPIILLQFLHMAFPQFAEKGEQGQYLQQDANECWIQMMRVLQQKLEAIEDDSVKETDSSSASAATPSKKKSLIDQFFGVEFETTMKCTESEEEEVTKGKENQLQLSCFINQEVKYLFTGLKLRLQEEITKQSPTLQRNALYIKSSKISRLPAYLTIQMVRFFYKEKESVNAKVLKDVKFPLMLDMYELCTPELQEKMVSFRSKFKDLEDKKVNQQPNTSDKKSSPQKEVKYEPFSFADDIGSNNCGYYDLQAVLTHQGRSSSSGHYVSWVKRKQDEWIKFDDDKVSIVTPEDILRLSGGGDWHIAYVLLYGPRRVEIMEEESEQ

Row | pIC50 | Compound
1 | 5.30 to 6.30 | Cc1c(C(=O)CN2CCC(O)CC2)c2ccccc2n1-c1ccc(Cl)nc1 [Compound 392]
2 | > 6.30 | Cc1c(C(=O)CN2CCCCC2)c2cc(NC(=O)C(C)(C)C)ccc2n1-c1ccc(C#N)cc1 [Compound 187, N-(1-(4-Cyanophenyl)-2-methyl-3-(2-(piperidin-1-yl)acetyl)-1H-indol-5-yl)pivalamide]
3 | < 5.30 | Cc1c(C(=O)CN2CC3(CCC3)C2)c2ncc(Br)cc2n1-c1ccc(C#N)cc1 [Compound 359]
4 | 5.30 to 6.30 | Cc1c(C(=O)CN2CCCCC2)c2ccc(CN3C(=O)c4ccccc4C3=O)cc2n1-c1ccc(Cl)cc1 [Compound 152, 2-((1-(4-Chlorophenyl)-2-methyl-3-(2-(piperidin-1-yl)acetyl)-1H-indol-6-yl)methyl)isoindoline-1,3-dione]
5 | > 6.30 | Cc1c(C(=O)CN2CCCCC2)c2ncc(CC(=O)N3CCCC3)cc2n1-c1ccc(C#N)cc1 [Compound 298, 4-(2-Methyl-6-(2-oxo-2-(pyrrolidin-1-yl)ethyl)-3-(2-(piperidin-1-yl)acetyl)-1H-pyrrolo[3,2-b]pyridin-1-yl)benzonitrile]
6 | 5.30 to 6.30 | Cc1c(C(=O)CN2CCCCC2)c2ccncc2n1-c1ccc(C#N)cc1 [Compound 144, 4-(2-Methyl-3-(2-(piperidin-1-yl)acetyl)-1H-pyrrolo[2,3-c]pyridin-1-yl)benzonitrile]
7 | < 5.30 | N#Cc1ccc(-n2c(C(F)(F)F)c(C(=O)CN3CCCCC3)c3ncccc32)cc1 [Compound 372]
8 | > 6.30 | Cc1c(C(=O)CN2CCCC2(C)C)c2ncc(Br)cc2n1-c1ccc(C#N)cc1 [Compound 310]
9 | > 6.30 | CCNC(=O)/C=C/c1cnc2c(C(=O)CN3CCCCC3)c(C)n(-c3ccc(C#N)cc3)c2c1 [Compound 305, (E)-3-(1-(4-Cyanophenyl)-2-methyl-3-(2-(piperidin-1-yl)acetyl)-1H-pyrrolo[3,2-b]pyridin-6-yl)-N-ethylacrylamide]
10 | < 5.30 | Cc1c(C(=O)CN2CCC(O)CC2)c2ccccc2n1-c1ncc(Cl)s1 [Compound 402]
11 | < 5.30 | O=C(CN1CCCCC1)c1c(O)n(-c2ccc(Cl)cc2)c2ccccc12 [Compound 131, 1-(1-(4-Chlorophenyl)-2-hydroxy-1H-indol-3-yl)-2-(piperidin-1-yl)ethan-1-one]
12 | > 6.30 | Cc1c(C(=O)CN2CCCCC2)c2nc(F)ccc2n1-c1ccc(Cl)cc1 [Compound 173]
13 | < 5.30 | Cc1[nH]c2cccnc2c1C(=O)CN1CCCCC1 [Compound 128, 1-(2-Methyl-1H-pyrrolo[3,2-b]pyridin-3-yl)-2-(piperidin-1-yl)ethan-1-one]
14 | > 6.30 | Cc1c(C(=O)CN2CCCCC2(C)C)c2ncc(Br)cc2n1-c1ccc(C#N)cc1 [Compound 318]
15 | 5.30 to 6.30 | CCOC(=O)CC1CCCN(CC(=O)c2c(C)n(-c3ccc(C#N)cc3)c3cc(Br)cnc23)C1 (centres unmarked) [Compound 366]
16 | > 6.30 | Cc1c(C(=O)CN2CCC(O)CC2)c2ncc(CCS(N)(=O)=O)cc2n1-c1ccc(Cl)cc1 [Compound 357, 2-(1-(4-Chlorophenyl)-3-(2-(4-hydroxypiperidin-1-yl)acetyl)-2-methyl-1H-pyrrolo[3,2-b]pyridin-6-yl)ethane-1-sulfonamide]
17 | > 6.30 | CCN(C)C(=O)Cc1cnc2c(C(=O)CN3CCCCC3)c(C)n(-c3ccc(C#N)cc3)c2c1 [Compound 382, 2-(1-(4-Cyanophenyl)-2-methyl-3-(2-(piperidin-1-yl)acetyl)-1H-pyrrolo[3,2-b]pyridin-6-yl)-N-ethyl-N-methylacetamide]
18 | 5.30 to 6.30 | Cc1c(C(=O)CN2CCCCC2)c2cnccc2n1-c1ccc(C#N)cc1 [Compound 151, 4-(2-Methyl-3-(2-(piperidin-1-yl)acetyl)-1H-pyrrolo[3,2-c]pyridin-1-yl)benzonitrile]
19 | 5.30 to 6.30 | Cc1c(C(=O)CN2CCC(NC(=O)c3ccc(N=[N+]=[N-])cc3)CC2)c2ccccc2n1-c1ccc(Cl)cc1 [Compound 147]
20 | > 6.30 | Cc1c(C(=O)CN2CCCCC2)c2ncccc2n1-c1ccc(C#N)cc1 [Compound 162, 4-(2-Methyl-3-(2-(piperidin-1-yl)acetyl)-1H-pyrrolo[3,2-b]pyridin-1-yl)benzonitrile]
21 | > 6.30 | Cc1c(C(=O)CN2CCCCC2)c2ccc(CN(C)C)cc2n1-c1ccc(Cl)cc1 [Compound 188, 1-(1-(4-chlorophenyl)-6-((Dimethylamino)methyl)-2-methyl-1H-indol-3-yl)-2-(piperidin-1-yl)ethan-1-one]
22 | < 5.30 | O=C(CN1CCCCC1)c1cn(-c2ccc(Cl)cc2)c2cc(O)ccc12 [Compound 120]
23 | > 6.30 | CCOC(=O)CCc1ccc2c(C(=O)CN3CCCCC3)c(C)n(-c3ccc(C#N)cc3)c2c1 [Compound 133, Ethyl 3-(1-(4-Cyanophenyl)-2-methyl-3-(2-(piperidin-1-yl)acetyl)-1H-indol-6-yl)propanoate]
24 | < 5.30 | Cc1c(C(=O)CN2C[C@H](C)C[C@H](C)C2)c2ncc(Br)cc2n1-c1ccc(C#N)cc1 [Compound 338]
25 | > 6.30 | Cc1c(C(=O)CN2CCCCC2)c2cc(F)ccc2n1-c1ccc(Cl)cc1 [Compound 98]
26 | > 6.30 | Cc1c(C(=O)CN2CC[C@@H](O)[C@@H](O)C2)c2ncc(Br)cc2n1-c1ccc(C#N)cc1 [Compound 355]

Row | pIC50 | Compound
27 | > 6.30 | Cc1c(C(=O)CN2CCCCC2)c2ccc(CN)cc2n1-c1ccc(Cl)cc1 [Compound 185, 1-(6-(Aminomethyl)-1-(4-chlorophenyl)-2-methyl-1H-indol-3-yl)-2-(piperidin-1-yl)ethan-1-one]
28 | > 6.30 | COCCOc1cnc2c(C(=O)CN3CCC(O)CC3)c(C)n(-c3ccc(C#N)cc3)c2c1 [Compound 341]
29 | < 5.30 | Cc1c(C(=O)CN2CCC(O)CC2)c2ccc(F)cc2n1-c1ccc(Cl)cc1 [Compound 394]
30 | 5.30 to 6.30 | CCc1c(C(=O)CN2CCCCC2)c2ccccc2n1-c1ccc(Cl)cc1 [Compound 401]
31 | > 6.30 | Cc1c(C(=O)CN2CCCCC2)c2ccc(CCC(=O)O)cc2n1-c1ccc(C#N)cc1 [Compound 201, 3-(1-(4-Cyanophenyl)-2-methyl-3-(2-(piperidin-1-yl)acetyl)-1H-indol-6-yl)propanoic Acid]
32 | > 6.30 | Cc1c(C(=O)CN2CCCCC2)c2ccc(OCC(N)=O)cc2n1-c1ccc(Cl)cc1 [Compound 179, 2-((1-(4-Chlorophenyl)-2-methyl-3-(2-(piperidin-1-yl)acetyl)-1H-indol-6-yl)oxy)acetamide]
33 | > 6.30 | Cc1nc2c(C(=O)CN3CCCCC3)c(C)n(-c3ccc(C#N)cc3)c2cc1CCC(=O)O [Compound 202, 3-(1-(4-Cyanophenyl)-2,5-dimethyl-3-(2-(piperidin-1-yl)acetyl)-1H-pyrrolo[3,2-b]pyridin-6-yl)propanoic Acid Hydrochloride Salt]
34 | > 6.30 | Cc1ccc2c(C(=O)CN3CCCCC3)c(C)n(-c3ccc(C#N)cc3)c2c1 [Compound 169, 4-(2,6-Dimethyl-3-(2-(piperidin-1-yl)acetyl)-1H-indol-1-yl)benzonitrile]
35 | > 6.30 | CCCOc1cnc2c(C(=O)CN3CCC(O)CC3)c(C)n(-c3ccc(C#N)cc3)c2c1 [Compound 347]
36 | > 6.30 | CC(=O)NCc1ccc2c(c1)c(C(=O)CN1CCCCC1)c(C)n2-c1ccc(C#N)cc1 [Compound 183, N-((1-(4-Cyanophenyl)-2-methyl-3-(2-(piperidin-1-yl)acetyl)-1H-indol-5-yl)methyl)acetamide]
37 | < 5.30 | Cc1c(C(=O)CN2CCCCO2)c2ncc(Br)cc2n1-c1ccc(C#N)cc1 [Compound 345]
38 | > 6.30 | COc1cnc2c(C(=O)CN3CCC(O)CC3)c(C)n(-c3ccc(C#N)cc3)c2c1 [Compound 339]
39 | > 6.30 | COc1cccc2c1c(C(=O)CN1CCCCC1)c(C)n2-c1ccc(C#N)cc1 [Compound 167]
40 | > 6.30 | Cc1c(C(=O)CN2CCCC[C@H]2C)c2ncc(Br)cc2n1-c1ccc(C#N)cc1 [Compound 309]
41 | 5.30 to 6.30 | Cc1c(C(=O)CN2CC=CCC2)c2ncc(Br)cc2n1-c1ccc(C#N)cc1 [Compound 314]
42 | < 5.30 | Cc1c(C(=O)CC2CCCCC2)c2ncccc2n1-c1ccc(C#N)cc1 [Compound 116]
43 | > 6.30 | Cc1c(C(=O)CN2CCCCC2)c2cc(C#N)ccc2n1-c1ccc(C#N)cc1 [Compound 163]
44 | > 6.30 | CCOc1cnc2c(C(=O)CN3CCC(O)CC3)c(C)n(-c3ccc(C#N)cc3)c2c1 [Compound 340]
45 | > 6.30 | CCN(CCc1cnc2c(C(=O)CN3CCCCC3)c(C)n(-c3ccc(Cl)cc3)c2c1)S(C)(=O)=O [Compound 303, N-(2-(1-(4-Chlorophenyl)-2-methyl-3-(2-(piperidin-1-yl)acetyl)-1H-pyrrolo[3,2-b]pyridin-6-yl)ethyl)-N-ethylmethanesulfonamide]
46 | > 6.30 | Cc1c(C(=O)CN2CCC(CN(C)C)CC2)c2ncc(Br)cc2n1-c1ccc(C#N)cc1 [Compound 352]
47 | < 5.30 | Cc1c(C(=O)CN2CCCCC2)c2ccccc2n1-c1ccc(C(N)=O)cc1 [Compound 108]
48 | > 6.30 | CCOC(=O)Cc1ccc2c(C(=O)CN3CCCCC3)c(C)n(-c3ccc(C#N)cc3)c2c1 [Compound 197]
49 | > 6.30 | Cc1c(C(=O)CN2C[C@@H](C)C[C@H](C)C2)c2ncc(Br)cc2n1-c1ccc(C#N)cc1 [Compound 349]
50 | > 6.30 | CCOC(=O)C[C@H](C)c1cnc2c(C(=O)CN3CCCCC3)c(C)n(-c3ccc(C#N)cc3)c2c1 [Compound 351, Ethyl (S)-3-(1-(4-Cyanophenyl)-2-methyl-3-(2-(piperidin-1-yl)acetyl)-1H-pyrrolo[3,2-b]pyridin-6-yl)butanoate]
51 | 5.30 to 6.30 | Cc1c(C(=O)CN2CCCCC2)c2cccnc2n1-c1ccc(C#N)cc1 [Compound 141, 4-(2-Methyl-3-(2-(piperidin-1-yl)acetyl)-1H-pyrrolo[2,3-b]pyridin-1-yl)benzonitrile]
52 | > 6.30 | Cc1c(C(=O)CN2CCCCC2)c2cccc(F)c2n1-c1ccc(C#N)cc1 [Compound 170]

Row | Compound | pIC50
53 | Cc1c(C(=O)CN2CCC(O)(C(F)(F)F)CC2)c2ccccc2n1-c1ccc(Cl)cc1 [Compound 390] | < 5.30
